BigSolDB 2.1
Several values for one entry are separate records, joined by “and”; a condition that tells them apart may be missing. Identical values can stand only once. Values belong to the compound of their own block, whether it stands above or below them.

solubility (mole fraction) (in DMAc, 278.15 K): 0.0106
solubility (mole fraction) (in DMAc, 283.15 K): 0.0124
solubility (mole fraction) (in DMAc, 288.15 K): 0.0147
solubility (mole fraction) (in DMAc, 293.15 K): 0.017
solubility (mole fraction) (in DMAc, 298.15 K): 0.0199
solubility (mole fraction) (in DMAc, 303.15 K): 0.0227
solubility (mole fraction) (in DMAc, 308.15 K): 0.0259
solubility (mole fraction) (in DMAc, 313.15 K): 0.0298
solubility (mole fraction) (in DMAc, 318.15 K): 0.0343
Structure (SMILES): CCC1=C(C)CN(C(=O)NCCc2ccc(S(=O)(=O)NC(=O)NC3CCC(C)CC3)cc2)C1=O (centres undefined)

solubility (mole fraction) (in water, 293.15 K): 0.00155 and 0.00159 and 0.00152
solubility (mole fraction) (in water, 310.15 K): 0.00272
solubility (mole fraction) (in water, 318.15 K): 0.0036
Structure (SMILES): CC(=O)Nc1ccc(O)cc1

solubility (mole fraction) (in water, 298.15 K): 0.000743
Structure (SMILES): O=c1cc[nH]c(=O)[nH]1

solubility (mole fraction) (in methanol, 293.15 K): 0.00714
solubility (mole fraction) (in methanol, 303.15 K): 0.00787
solubility (mole fraction) (in methanol, 313.15 K): 0.00858
solubility (mole fraction) (in methanol, 323.15 K): 0.00932
solubility (mole fraction) (in methanol, 333.15 K): 0.0102
Structure (SMILES): O=c1c(-c2ccc(O)cc2)coc2c([C@@H]3O[C@H](CO)[C@@H](O)[C@H](O)[C@H]3O)c(O)ccc12

solubility (mole fraction) (in water, 298.15 K): 5.73e-07
Structure (SMILES): C(=N\Nc1ccccc1)/c1ccco1

solubility (mole fraction) (in acetone, 278.15 K): 0.00654
solubility (mole fraction) (in acetone, 283.15 K): 0.00793
solubility (mole fraction) (in acetone, 288.15 K): 0.0098
solubility (mole fraction) (in acetone, 293.15 K): 0.012
solubility (mole fraction) (in acetone, 298.15 K): 0.0148
solubility (mole fraction) (in acetone, 303.15 K): 0.0184
solubility (mole fraction) (in acetone, 308.15 K): 0.023
solubility (mole fraction) (in acetone, 313.15 K): 0.0266
solubility (mole fraction) (in acetone, 318.15 K): 0.0344
Structure (SMILES): CCCN1CCCC[C@H]1C(=O)Nc1c(C)cccc1C

solubility (mole fraction) (in water, 293.65 K): 6.28e-05
solubility (mole fraction) (in water, 296.05 K): 7.6e-05
solubility (mole fraction) (in water, 303.05 K): 0.000133
solubility (mole fraction) (in water, 308.65 K): 0.000197
solubility (mole fraction) (in water, 323.35 K): 0.000556
solubility (mole fraction) (in water, 328.45 K): 0.000747
solubility (mole fraction) (in water, 333.15 K): 0.000936
Structure (SMILES): Nc1ccc(Cl)nn1

solubility (mole fraction) (in acetone, 298.15 K): 0.0662
solubility (mole fraction) (in dichloromethane, 298.15 K): 0.175
solubility (mole fraction) (in diisopropyl ether, 298.15 K): 3.71e-05
solubility (mole fraction) (in ethanol, 298.15 K): 0.0341
solubility (mole fraction) (in ethyl acetate, 298.15 K): 0.0263
solubility (mole fraction) (in isopropanol, 298.15 K): 0.0252
Structure (SMILES): CC(C)(C)C(=O)OCOP(=O)(COCCn1cnc2c(N)ncnc21)OCOC(=O)C(C)(C)C

solubility (mole fraction) (in acetic acid, 313.2 K): 0.00168
solubility (mole fraction) (in acetic acid, 323.2 K): 0.00311
solubility (mole fraction) (in acetic acid, 333.2 K): 0.0048
solubility (mole fraction) (in acetic acid, 343.2 K): 0.00676
solubility (mole fraction) (in acetic acid, 353.2 K): 0.0087
solubility (mole fraction) (in acetic acid, 363.2 K): 0.0106
Structure (SMILES): O=C(O)c1ccc(C(=O)O)c(C(=O)O)c1

solubility (mole fraction) (in ethanol, 293.2 K): 1.27e-06
solubility (mole fraction) (in ethanol, 303.2 K): 1.63e-06
solubility (mole fraction) (in ethanol, 313.2 K): 1.93e-06
solubility (mole fraction) (in ethanol, 323.2 K): 2.25e-06
solubility (mole fraction) (in ethanol, 333.2 K): 2.63e-06
Structure (SMILES): Clc1ccc(-c2c3nc(c(-c4ccc(Cl)cc4)c4ccc([nH]4)c(-c4ccc(Cl)cc4)c4nc(c(-c5ccc(Cl)cc5)c5ccc2[nH]5)C=C4)C=C3)cc1

Structure (SMILES): CC(C)C[C@H](CN)CC(=O)O
solubility (mole fraction) (in water, 283.15 K): 0.00349
solubility (mole fraction) (in water, 298.15 K): 0.00373
solubility (mole fraction) (in water, 308.15 K): 0.00397
solubility (mole fraction) (in water, 315.65 K): 0.00447
solubility (mole fraction) (in water, 323.15 K): 0.00486
solubility (mole fraction) (in water, 328.15 K): 0.00531
solubility (mole fraction) (in water, 338.15 K): 0.00641

solubility (mole fraction) (in 1,2-dimethoxyethane, 293.15 K): 6.3e-05
solubility (mole fraction) (in 1-hexene, 293.15 K): 0.000187
solubility (mole fraction) (in 2-butanone, 293.15 K): 9.1e-05
solubility (mole fraction) (in MTBE, 293.15 K): 0.000119
solubility (mole fraction) (in acetone, 293.15 K): 1.4e-05
solubility (mole fraction) (in cyclohexane, 293.15 K): 0.000302
solubility (mole fraction) (in cyclohexanone, 293.15 K): 0.00032
solubility (mole fraction) (in dibutyl ether, 293.15 K): 0.000158
solubility (mole fraction) (in diglyme, 293.15 K): 9.6e-05
solubility (mole fraction) (in n-hexane, 293.15 K): 8.9e-05
solubility (mole fraction) (in n-octanol, 293.15 K): 2.79e-05
solubility (mole fraction) (in tert-amyl methyl ether, 293.15 K): 0.00018
solubility (mole fraction) (in toluene, 293.15 K): 0.00109
Structure (SMILES): CC1=C(/C=C/C(C)=C/C=C/C(C)=C/C=C/C=C(C)/C=C/C=C(C)/C=C/C2=C(C)CCCC2(C)C)C(C)(C)CCC1

solubility (mole fraction) (in water, 298.15 K): 0.000308
Structure (SMILES): O=c1[nH]cc(Cl)c(=O)[nH]1

Structure (SMILES): c1ccc(P(c2ccccc2)c2ccccc2)cc1
solubility (mole fraction) (in ethanol, 303.5 K): 0.009
solubility (mole fraction) (in ethanol, 308.3 K): 0.0117
solubility (mole fraction) (in ethanol, 313.3 K): 0.0162
solubility (mole fraction) (in ethanol, 318.6 K): 0.0225
solubility (mole fraction) (in ethanol, 323.2 K): 0.0279
solubility (mole fraction) (in ethanol, 327.9 K): 0.0385
solubility (mole fraction) (in ethanol, 333 K): 0.0494

solubility (mole fraction) (in water, 298.15 K): 1.73e-07
Structure (SMILES): O=[N+]([O-])c1ccc(N/N=C/c2ccc[nH]2)cc1

solubility (mole fraction) (in water, 293.2 K): 7.36e-08
solubility (mole fraction) (in water, 298.2 K): 8.02e-08
solubility (mole fraction) (in water, 303.2 K): 9.16e-08
solubility (mole fraction) (in water, 308.2 K): 1.27e-07
solubility (mole fraction) (in water, 313.2 K): 1.44e-07
Structure (SMILES): Cc1ccc(-c2cc(C(F)(F)F)nn2-c2ccc(S(N)(=O)=O)cc2)cc1

solubility (mole fraction) (in water, 288.15 K): 0.0217
solubility (mole fraction) (in water, 293.15 K): 0.0224
solubility (mole fraction) (in water, 298.15 K): 0.0236
solubility (mole fraction) (in water, 303.15 K): 0.0249
solubility (mole fraction) (in water, 308.15 K): 0.0265
solubility (mole fraction) (in water, 313.15 K): 0.0287
solubility (mole fraction) (in water, 318.15 K): 0.0301
solubility (mole fraction) (in water, 323.15 K): 0.0324
Structure (SMILES): NCCC(=O)N[C@@H](Cc1cnc[nH]1)C(=O)O

solubility (mole fraction) (in n-propanol, 283.15 K): 0.0201
solubility (mole fraction) (in n-propanol, 288.15 K): 0.0283
solubility (mole fraction) (in n-propanol, 293.15 K): 0.0389
solubility (mole fraction) (in n-propanol, 298.15 K): 0.0519
solubility (mole fraction) (in n-propanol, 303.15 K): 0.0677
solubility (mole fraction) (in n-propanol, 308.15 K): 0.0851
solubility (mole fraction) (in n-propanol, 313.15 K): 0.0938
solubility (mole fraction) (in n-propanol, 318.15 K): 0.129
solubility (mole fraction) (in n-propanol, 323.15 K): 0.151
Structure (SMILES): C/C=C/C=C/C(=O)O

solubility (mole fraction) (in water, 278.15 K): 0.0211
solubility (mole fraction) (in water, 281.15 K): 0.0216
solubility (mole fraction) (in water, 285.15 K): 0.0224
solubility (mole fraction) (in water, 289.15 K): 0.0234
solubility (mole fraction) (in water, 293.15 K): 0.0248
solubility (mole fraction) (in water, 298.15 K): 0.0265
Structure (SMILES): C[N+](C)(C)CCOP(=O)([O-])OP(=O)([O-])OC[C@H]1O[C@@H](n2ccc(N)nc2=O)[C@H](O)[C@@H]1O.[Na+]

solubility (mole fraction) (in water, 283.15 K): 0.00531
solubility (mole fraction) (in water, 288.15 K): 0.00555
solubility (mole fraction) (in water, 293.15 K): 0.00625
solubility (mole fraction) (in water, 298.15 K): 0.00681
solubility (mole fraction) (in water, 303.15 K): 0.00724
solubility (mole fraction) (in water, 308.15 K): 0.00787
solubility (mole fraction) (in water, 313.15 K): 0.00837
Structure (SMILES): CSCC[C@H](N)C(=O)O

solubility (mole fraction) (in water, 298.15 K): 0.000272
Structure (SMILES): O=c1[nH]cc(Br)c(=O)[nH]1

solubility (mole fraction) (in water, 298.15 K): 0.00268
Structure (SMILES): O=c1[nH]cc(C(F)(F)F)c(=O)[nH]1

solubility (mole fraction) (in water, 298.15 K): 0.000235
solubility (mole fraction) (in water, 303.15 K): 0.000319
solubility (mole fraction) (in water, 308.15 K): 0.000388
solubility (mole fraction) (in water, 313.15 K): 0.000439
Structure (SMILES): O=c1ccc2ccccc2o1

Structure (SMILES): c1ccc2c(c1)[nH]c1ccccc12
solubility (mole fraction) (in 1-chlorooctane, 298.15 K): 0.00242
solubility (mole fraction) (in 1-chlorotetradecane, 298.15 K): 0.0024
solubility (mole fraction) (in chlorocyclohexane, 298.15 K): 0.00291
solubility (mole fraction) (in dibutyl ether, 298.15 K): 0.00501

solubility (mole fraction) (in water, 293.15 K): 0.0483
solubility (mole fraction) (in water, 298.15 K): 0.0499
solubility (mole fraction) (in water, 303.15 K): 0.0525
solubility (mole fraction) (in water, 308.15 K): 0.0551
solubility (mole fraction) (in water, 313.15 K): 0.0585
solubility (mole fraction) (in water, 318.15 K): 0.0614
Structure (SMILES): O=C(O)[C@@H]1C[C@@H](O)CN1

solubility (mole fraction) (in water, 298.15 K): 7e-09
Structure (SMILES): O=[N+]([O-])c1ccc(N/N=C/c2cccs2)c([N+](=O)[O-])c1

solubility (mole fraction) (in water, 298.15 K): 1.6e-08
Structure (SMILES): O=[N+]([O-])c1ccc(N/N=C/c2ccc[nH]2)c([N+](=O)[O-])c1

solubility (mole fraction) (in ethanol, 298.15 K): 0.000214
solubility (mole fraction) (in water, 298.15 K): 4.01e-07
Structure (SMILES): CN1C(C(=O)Nc2ccccn2)=C(O)c2ccccc2S1(=O)=O

solubility (mole fraction) (in water, 298.15 K): 1.72e-07
Structure (SMILES): O=[N+]([O-])c1ccc(N/N=C/c2ccco2)cc1

solubility (mole fraction) (in 2,2,4-trimethylpentane, 298.15 K): 0.00589
solubility (mole fraction) (in 4-methyl-2-pentanol, 298.15 K): 0.0128
solubility (mole fraction) (in cyclohexane, 298.15 K): 0.0107
solubility (mole fraction) (in dibutyl ether, 298.15 K): 0.0335
solubility (mole fraction) (in isobutanol, 298.15 K): 0.00969
solubility (mole fraction) (in isopentanol, 298.15 K): 0.0128
solubility (mole fraction) (in isopropanol, 298.15 K): 0.00831
solubility (mole fraction) (in methylcyclohexane, 298.15 K): 0.0113
solubility (mole fraction) (in n-butanol, 298.15 K): 0.0131
solubility (mole fraction) (in n-heptane, 298.15 K): 0.00656
solubility (mole fraction) (in n-hexane, 298.15 K): 0.00575
solubility (mole fraction) (in n-octane, 298.15 K): 0.00724
solubility (mole fraction) (in n-octanol, 298.15 K): 0.0169
solubility (mole fraction) (in n-pentanol, 298.15 K): 0.015
solubility (mole fraction) (in n-propanol, 298.15 K): 0.0118
solubility (mole fraction) (in sec-butanol, 298.15 K): 0.011
Structure (SMILES): O=C(C(=O)c1ccccc1)c1ccccc1

solubility (mole fraction) (in dichloromethane, 283.15 K): 0.00567
solubility (mole fraction) (in dichloromethane, 288.15 K): 0.00642
solubility (mole fraction) (in dichloromethane, 293.15 K): 0.00731
solubility (mole fraction) (in dichloromethane, 298.15 K): 0.00843
solubility (mole fraction) (in dichloromethane, 303.15 K): 0.0103
solubility (mole fraction) (in dichloromethane, 308.15 K): 0.0133
Structure (SMILES): O=P(Oc1ccccc1)(Oc1ccccc1)N1CCN(P(=O)(Oc2ccccc2)Oc2ccccc2)CC1
